# Assay results reported in patent publication US20150191459A1, “CATHEPSIN INHIBITORS” (ViroBay, Inc., priority 2013, published 2015).
# Biological target: Human cathepsin B (Homo sapiens, UniProt P07858)
# Assay: Cathepsin B Assay
# Assay type: biochemical
# Conditions: apparent inhibition constant; Boc-Leu-Arg-Arg-AMC substrate; pH 6; 30 minutes pre-incubation; read-out: cat B Ki
# Experimental: Solutions of test compounds in varying concentrations were prepared in 10 μL of dimethyl sulfoxide (DMSO) and then diluted into assay buffer (40 μL, comprising: N,N-bis(2-hydroxyethyl)-2-aminoethanesulfonic acid (BES), 50 mM (pH 6); polyoxyethylenesorbitan monolaurate, 0.05%; and dithiothreitol (DTT), 2.5 mM). Human cathepsin B (0.025 pMoles in 25 μL of assay buffer) was added to the dilutions. The assay solutions were mixed for 5-10 seconds on a shaker plate, covered and incubated for 30 minutes at ambient temperature. Boc-Leu-Arg-Arg-AMC (20 μM in 1% DMSO) was added to the assay solutions and hydrolysis was followed spectrophotometrically at (λ 460 nm) for 5 minutes. Apparent inhibition constants (Ki) were calculated from the enzyme progress curves using standard mathematical models.
row,Ki [nM],SMILES
1,130,"N#CC1(NC(=O)[C@H](Cc2cc(Cl)c(O)c(Cl)c2)N[C@@H](c2ccc(F)cc2)C(F)(F)F)CC1 [N-(1-Cyanocyclopropyl)-2S-[2,2,2-trifluoro-1S-(4-fluorophenyl)-ethylamino]-3-(3,5-dichloro-4-hydroxyphenyl)-propanamide]"
2,1.28,"CC[C@H](NC(=O)[C@H](Cc1cc(I)c(O)c(I)c1)N[C@@H](c1ccc(Br)cc1)C(F)(F)F)C(=O)C(=O)NC1CC1 [N-cyclopropyl-3S-{3-[3,5-diiodo-4-hydroxyphenyl)-2S-(2,2,2-trifluoro)-1S-(4-bromophenyl)ethylamino]propionylamino}-2-oxopentanamide]"
3,≤ 1,"CC[C@H](NC(=O)[C@H](Cc1cc(Cl)c(O)c(Cl)c1)N[C@@H](c1ccc(F)cc1)C(F)(F)F)C(=O)C(=O)NC1CC1 [N-Cyclopropyl-3S-{3-[3,5-dichloro-4-hydroxyphenyl)-2S-(2,2,2-trifluoro)-1S-(4-fluorophenyl)ethylamino]propionylamino}-2-oxopentanamide]"
4,1.53,"CC[C@H](NC(=O)[C@H](Cc1cc(Cl)c(O)c(Cl)c1)N[C@@H](c1ccc(Br)cc1)C(F)(F)F)C(=O)C(=O)NC1CC1 [N-cyclopropyl-3S-{3-[3,5-dichloro-4-hydroxyphenyl)-2S-(2,2,2-trifluoro)-1S-(4-bromophenyl)ethylamino]propionylamino}-2-oxopentanamide]"
5,3.5,"N#CCNC(=O)[C@H](Cc1cc(I)c(O)c(I)c1)N[C@@H](c1ccc(Br)cc1)C(F)(F)F [N-Cyanomethyl-2S-[2,2,2-trifluoro-1S-(4-bromophenyl)-ethylamino]-3-(3,5-diiodo-4-hydroxyphenyl)-propanamide]"
6,1.16,"CC[C@H](NC(=O)[C@H](Cc1cc(I)c(O)c(I)c1)N[C@@H](c1ccc(F)cc1)C(F)(F)F)C(=O)C(=O)NC1CC1 [N-cyclopropyl-3S-{3-[3,5-diiodo-4-hydroxyphenyl)-2S-(2,2,2-trifluoro)-1S-(4-fluorophenyl)ethylamino]propionylamino}-2-oxopentanamide]"
7,13,"N#CC1(NC(=O)[C@H](Cc2cc(I)c(O)c(I)c2)N[C@@H](c2ccc(Br)cc2)C(F)(F)F)CC1 [N-(1-Cyanocyclopropyl)-2S-[2,2,2-trifluoro-1S-(4-bromophenyl)-ethylamino]-3-(3,5-diiodo-4-hydroxyphenyl)-propanamide]"
8,45,"N#CC1(NC(=O)[C@H](Cc2cc(Cl)c(O)c(Cl)c2)N[C@@H](c2ccc(Br)cc2)C(F)(F)F)CC1 [N-(1-Cyanocyclopropyl)-2S-[2,2,2-trifluoro-1S-(4-bromophenyl)-ethylamino]-3-(3,5-dichloro-4-hydroxyphenyl)-propanamide]"
